In the experiment the target is T1, yCPT1 (cholinephosphotransferase) (Saccharomyces cerevisiae, UniProt P17898).
T1 sequence (P17898 1-393): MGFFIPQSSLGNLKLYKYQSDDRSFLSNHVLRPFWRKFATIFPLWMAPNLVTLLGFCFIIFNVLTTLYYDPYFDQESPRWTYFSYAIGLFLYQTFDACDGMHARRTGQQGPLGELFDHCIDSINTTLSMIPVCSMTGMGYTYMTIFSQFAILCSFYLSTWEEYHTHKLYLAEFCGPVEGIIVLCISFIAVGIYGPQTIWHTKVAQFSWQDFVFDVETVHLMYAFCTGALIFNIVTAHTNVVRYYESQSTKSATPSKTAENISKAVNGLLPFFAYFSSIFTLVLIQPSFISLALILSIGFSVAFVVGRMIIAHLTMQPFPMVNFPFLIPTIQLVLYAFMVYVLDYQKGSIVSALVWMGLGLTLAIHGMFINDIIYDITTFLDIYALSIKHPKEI
As to the kind of experiment: cryo-EM structure. It counts as biochemical.

The term IC50 denotes the concentration at which inhibition is half-maximal.

For `COc1ccc2c(c[n+](C)c3c4cc5c(cc4ccc23)OCO5)c1OC` [chelerythrine], the IC50 was determined as 443 nM.

Source of the values: paper PMC11696302 (Nature Communications, 2025).
